Measurements published in patent US20040152640A1, “Preparation for the prevention and or treatment of altered bone metabolism” (priority 2001, published 2004).

Test system: mouse bone marrow cells
Assay: Alkaline phosphatase (ALP) activity assay in mouse bone marrow cells (marker for osteoblast differentiation)
Format: cell-based
Parameters: dose or concentration left out as unconfirmed
Conditions: mice bone marrow cells, 3 weeks exposure; with ascorbic acid and β-glycerolphosphate; stimulation more pronounced than genistein
Experimental: Bone marrow cells were isolated from six months old female NMRI mice. After washing, the cells were diluted in phenol red free α-MEM (1% p/s, 15% charcoal treated FCS) and seeded in 24-well plates (1.25*10^6 cells/well). After 24 hours incubation (37° C., 5% CO2) the cells were exposed to the active components (1*10^−5, 1*10^−6 and 1*10^−7 M) together with ascorbic acid (50 μg/ml) and β-glycerolphosphate (1 mM). Exposure media were refreshed every 3 days. After 2 and 3 weeks of incubation, cells were washed with PBS and stored at −20° C. After lysis DNA amounts and alkaline phosphatase activities were determined as described below. The DNA amounts are measured to determine to the number of cells and the alkaline phosphatase activity is used as a marker for osteoblast differentiation. 300 μl lysis buffer (1×SSC/0.01% SDS) was added to the frozen cells. After 1 hour incubation (37° C.) the plates were sonified for 10 minutes and cell suspensions were used for ALP activity measurements. 25 μl cell lysate was transferred in duplicate to 96-well plates. 25 μl of 1*SSC/0.01% SDS served as a negative control. […] ALP activity was measured at a wavelength of 405 nm at room temperature during 10 minutes at 30-second intervals. […] Activity is expressed as nmol p-nitrophenol production/minute/well. (Mean±sem, 2 independent experiments measured in duplicate)

| SMILES | alkaline phosphatase signal in differentiated osteoblasts |
| --- | --- |
| O=c1cc(-c2ccc(O)c(O)c2)oc2cc(O)cc(O)c12 [luteolin] | increased alkaline phosphatase signal |
| O=c1cc(-c2ccc(O)cc2)oc2cc(O)cc(O)c12 [apigenin] | increased alkaline phosphatase signal |
